Experimental data: US12097174B2, “Methods and agents that enhance myogenic progenitor cell engraftment” (President and Fellows of Harvard College, priority 2018, dated 2024)
“Also recorded” adds a separate entry of the source.

What was measured:
[1] = system: Zebrafish myogenic progenitor cells (ZeMPCs); assay: Limiting dilution engraftment assay (ELDA): cells treated ex vivo, transplanted into adult zebrafish, imaged at 7 dpt; type: in vivo; details: for engraftment efficiency compared with DMSO/vehicle-treated cells: 0.1 μM LPA or 0.3 μM NFA; for engraftment efficiency relative to vehicle-treated controls: 5 μM LPA or 10 μM NFA; for engraftment capacity of transplanted myogenic progenitors in recipient adult zebrafish: 4 hour ex vivo chemical exposure, replicate transplantation
Description: Donor cells were derived from embryos that contained a GFP cassette driven by the promoter for mylz2, a muscle-specific structural protein. Recipients were optically clear, immunocompromised adult prkdc−/− zebrafish. To perform a limiting dilution assay, three doses (n=100, 200, and 400 cells) were administered per treatment (n=10 engraftment events per treatment-dose combination). The estimated engrafting cell frequency was calculated using the Extreme Limiting Dilution Analysis (ELDA, Hu et. al. 2009), which provides the most likely estimate (MLE) of engrafting cell frequency.
Given that this group of 230 lipids is too many to be examined in mice, transplantation efficiency was instead examined via limit-dilution assays in 15 recipient zebrafish per compound after a brief (4 hour) ex vivo chemical exposure. Positive hits from this primary screening were rescreened in replicate transplantation experiments incorporating dose response testing.
Lipids are frequently found to enhance cell migration and homeostasis in blood and muscle tissue (Cencetti et al., 2014; Lahvic et al., 2018; Li et al., 2015; Oh et al., 2016), and so it was elected to screen mainly bioactive lipids in efforts to identify compounds that enhance ZeMPCs engraftment efficiency in vivo. Myogenic progenitor cells were treated for 4 hours with one of the 188 unique lipid compounds contained in the ICCB Known Bioactives Library. Compound-treated cells were then harvested and transplanted intramuscularly into both flanks of 5 different casper recipient fish, with transplants performed at each of 3 transplanted cell doses (25, 75 or 150 cells). In these studies, recipient fish received split-dose irradiation of 15 Gy at 2 days and 1 day prior to transplantation to suppress any immune responses to the transplanted cells. Engraftment efficiency was measured by imaging casper recipients at 7 dpt (FIG. 18A). […] For this secondary screening approach, cells were transplanted into prkdc^D3612ls casper fish, which are deficient in mature T and B cells, and assayed engraftment efficiency in the recipient fish 7 days post-transplantation. Two compounds were identified, lysophosphatidic acid (LPA) and niflumic acid (NFA), which increased ZeMPC engraftment efficiency in both of these assay systems (FIG. 12B).
Lipids from the ICCB Known Bioactives Library (enzolifesciences.com/BML-2840/iccb-known-bioactives-library) were diluted at a 1:100 ratio in transplantation media (zESC medium without bFGF and FBS) and added to prewashed in vitro expanded muscle cells. NFA (Cayman and Santa Cruz Biotechnology) and LPA (Cayman and Santa Cruz Biotechnology) were used for the secondary confirmation screening experiments. […] 4- to 8-month-old casper recipients received split-dose irradiation of 15 Gy each, either 2 days or 1 day before transplantation. For LDA screening, cells were transplanted into each side of 5 pre-irradiated casper recipient fish or 5 non-irradiated prkdc-mutant recipient zebrafish. At 7 dpt, the recipients were anaesthetized using a previously described method (Dang et al., 2016) and imaged using a fluorescent stereo microscope (Leica M165 FC). Successful engraftment was defined as the presence of GFP+ fibers. Variation in different experiments is caused by inherent variability in the in vitro ZeMPC derivation procedure, which results in differences in engrafting cell frequency across different derivation attempts. To mitigate the impact of such experimental variation on screening results, only LDA results for cells derived from the same cultures were compared. Comparison to a vehicle-treated experimental control was included in every transplantation experiment. Next, the chemical treated cell potency and vehicle-treated cell potency was measured using the Extreme Limiting Dilution Analysis (ELDA) software (Hu and Smyth, 2009). The ratio of the treated cell potency and vehicle-treated cell potency determine the engraftment efficiency fold increase value.

ZeMPCs [2] = assay: ZeMPC competitive transplantation assay; type: in vivo; details: co-injected into prkdc-mutant zebrafish, imaged at 7 dpt
Text: FIGS. 20A-20B show ZeMPC competitive transplantation assays results. (FIG. 20A) Experimental design of ZeMPC competitive transplantation assays using different combinations of chemical-treated or DMSO-treated ZeMPCs marked by mCherry or GFP. ZeMPCs were co-injected from mylz2-GFP and mylz2-mCherry donors into 4- to 8-months-old prkdc-mutant recipient zebrafish and imaged at 7 dpt to assess the engraftment of mylz2-mCherry (pre-transplantation treatment with DMSO) and mylz2-GFP (pre-transplantation treatment with DMSO, LPA or NFA) cells. (FIG. 20B) Engraftment efficiency of equal numbers of DMSO-treated mCherry cells vs. DMSO-treated GFP cells (left), DMSO-treated mCherry cells vs. LPA-treated GFP cells (middle) and DMSO-treated mCherry cells vs. NFA-treated GFP cells (right).
Lipids are frequently found to enhance cell migration and homeostasis in blood and muscle tissue (Cencetti et al., 2014; Lahvic et al., 2018; Li et al., 2015; Oh et al., 2016), and so it was elected to screen mainly bioactive lipids in efforts to identify compounds that enhance ZeMPCs engraftment efficiency in vivo. Myogenic progenitor cells were treated for 4 hours with one of the 188 unique lipid compounds contained in the ICCB Known Bioactives Library. […] Engraftment efficiency was measured by imaging casper recipients at 7 dpt (FIG. 18A). […]

mouse satellite cells = assay: RNA sequencing of treated mouse satellite cells; type: cell-based
Text: To gain insight into the mechanisms through which LPA and NFA treatment might enhance donor cell engraftment in vertebrate muscle, RNA sequencing analysis were next performed in treated ZeMPCs and in mouse satellite cells. Comparison of differential gene expression in NFA-treated or LPA-treated cells to vehicle-treated cells indicated upregulation of calcium-dependent genes in response to these compounds in both ZeMPCs (FIG. 21) and mouse satellite cells (FIGS. 15A and 15B).
Isolated mouse muscle satellite cells and ZeMPCs were used to prepare RNA after in vitro chemical treatment. Total RNA was isolated by the micro RNeasy kit (QIAGEN). cDNA was prepared using SMART Seq v4 Ultra Low RNA-Seq kit for 48 reactions (Takara) and a Nextera kit was used for library construction. Sequencing data FASTQ files for samples were processed in tophat-cufflinks workflow in a Linux server operating system to output gene-level abundance estimates and statistical inference as gene-level raw counts. Those raw counts for samples were input into the cuffdiff for differential gene expression analysis. The assigned GEO accession number for the RNA sequencing data is GSE143801.

ZeMPCs [3] = assay: Calcium imaging in Fura-2, AM treated ZeMPCs (single-cell imaging); type: cell-based, zebrafish; details: 10 μM NFA, 5 μM LPA, 10 μM ionomycin; 10-20 seconds after loading
Description: Fura-2, AM treated ZeMPCs were exposed to 10 μM NFA, 5 μM LPA, 10 μM lonomycin (as a positive control) and DMSO (as vehicle control) to visualize their effect on intracellular calcium ion concentration using single-cell imaging. […] Scale bar 50 μm.
The ZeMPCs and C2C12 cells were incubated with Fura-2, AM (Thermo Fisher Sci F1225), a cell permeant fluorescent calcium ion indicator, for 45 minutes at 28.5° C. and 37° C., respectively, followed by imaging with Celldiscoverer7 Microscope (Zeiss). 20 seconds after imaging initiation the treatment was added to the cells and continued for a total of 2-3 minutes.

muscle progenitor cells = assay: Measurement of Ca2+ transients in fura-2 AM-loaded muscle progenitor cells; type: cell-based
Description: Measurement of Ca2+ transients was performed in fura-2 AM-loaded cells.
Thus, it is possible that the enhanced engraftment capacity of muscle progenitor cells exposed to these compounds involves a common Ca^2+-dependent signaling events (FIG. 9).

Row | Compound | engraftment efficiency compared with DMSO/vehicle-treated cells [1] | engraftment efficiency relative to vehicle-treated controls [1] [times] | engraftment efficiency compared with DMSO treated cells ([1]; 15 uM NFA or 4 uM LPA) | engraftment capacity of transplanted myogenic progenitors in recipient adult zebrafish [1] | engraftment efficiency relative to DMSO-treated cells ([1]; ZeMPCs treated for 1 hour) | engraftment efficiency relative to DMSO-treated cells ([1]; ZeMPCs treated for 2 hours) [times] | engraftment efficiency relative to DMSO-treated cells ([1]; ZeMPCs treated for 4 hours) [times] | advantage compared to DMSO-treated control cells in competitive transplantation (ZeMPCs [2]) [fold] | expression of calcium-dependent genes vs vehicle-treated cells (mouse satellite cells) | intracellular calcium ion concentration (ZeMPCs [3]) | cytoplasmic Ca2+ concentration (muscle progenitor cells) | engraftment efficiency compared with DMSO treated cells ([1]; 0.3 uM LPA) | expression of myoblast fusion related genes, including myomaker (Tmem8c) and Ccl8 (mouse satellite cells)
1 | O=C(O)c1cccnc1Nc1cccc(C(F)(F)F)c1 [NFA, niflumic acid] | did not change the engraftment efficiency; also recorded: did not alter the engraftment efficiency; also recorded: no difference | 2.37 | increased engraftment efficiency | increasing the engraftment capacity | did not alter | 2.85 | 2.64 | ~2 | upregulation | increase | stimulate increases | – | –
2 | lysophosphatidic acid [LPA] | did not change the engraftment efficiency; also recorded: did not alter the engraftment efficiency; also recorded: did not result in any change | 2.34 | increased engraftment efficiency | increasing the engraftment capacity | 1.11 times | 1.72 | 2.3 | ~2 | upregulation | increase | stimulate increases | did not change the engraftment efficiency | upregulated
